Target: Histamine H3 receptor (Homo sapiens, UniProt Q9Y5N1)
Experiment: Displacement of [125I]Iodoproxyfran from human histamine H3 receptor expressed in HEK293 cells
Format: cell-based

Histamine H3 receptor (Homo sapiens, UniProt Q9Y5N1), sequence (Q9Y5N1 whole entry): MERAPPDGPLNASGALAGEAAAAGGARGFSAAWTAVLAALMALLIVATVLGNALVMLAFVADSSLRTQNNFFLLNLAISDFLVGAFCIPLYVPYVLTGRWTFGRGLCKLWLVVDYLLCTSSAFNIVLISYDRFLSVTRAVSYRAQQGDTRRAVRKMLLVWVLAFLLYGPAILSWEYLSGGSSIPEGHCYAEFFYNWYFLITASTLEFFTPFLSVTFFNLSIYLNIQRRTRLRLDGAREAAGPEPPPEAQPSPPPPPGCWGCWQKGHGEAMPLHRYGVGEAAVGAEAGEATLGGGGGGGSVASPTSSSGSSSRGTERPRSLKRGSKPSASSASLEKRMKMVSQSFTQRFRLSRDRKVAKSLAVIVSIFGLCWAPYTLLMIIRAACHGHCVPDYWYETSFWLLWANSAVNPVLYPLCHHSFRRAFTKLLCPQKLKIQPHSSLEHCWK

**Q.** For `COc1cccc(OCCOCCCN2CCCC(C)C2)c1` (stereo not drawn), which Ki is on record?
**A.** 14.8 nM

**Q.** How did the Ki turn out when `COc1cccc(OCCOCCCN2CCC(C)CC2)c1` was run?
**A.** 12.5 nM

**Q.** How did the Ki turn out when `CC1CCCN(CCCOCCOc2ccc(C(C)(C)C)cc2)C1` (stereo not drawn) was run?
**A.** 62 nM

**Q.** Which Ki does the source give for `COc1cccc(OCCCOCCCN2CCCC(C)C2)c1` (stereo not drawn) here?
**A.** 27.3 nM

**Q.** Which Ki does the source give for `COc1cccc(OCCCOCCCN2CCC(C)CC2)c1` here?
**A.** 49 nM

**Q.** Which Ki does the source give for `COc1cccc(OCCCOCCCN2CCCCCC2)c1` here?
**A.** 18.6 nM

**Q.** How did the Ki turn out when `CC1CCCN(CCCOCCCOc2ccc(Cl)cc2)C1` (stereo not drawn) was run?
**A.** 3.2 nM

**Q.** How did the Ki turn out when `CC1CCN(CCCOCCCOc2ccc(Cl)cc2)CC1` was run?
**A.** 27.9 nM

**Q.** How did the Ki turn out when `CC1CCCN(CCCOCCCOc2ccc(C(C)(C)C)cc2)C1` (stereo not drawn) was run?
**A.** 12.8 nM

**Q.** With `CC1CCN(CCCOCCCOc2ccc(C(C)(C)C)cc2)CC1` as the compound, how does the Ki read?
**A.** 51 nM

**Q.** `CC(C)(C)c1ccc(OCCCOCCCN2CCCCCC2)cc1` was tested. Which Ki did it give?
**A.** 7.7 nM

**Q.** `COc1cccc(OCCOCCCN2CCCCCC2)c1` was tested. Which Ki did it give?
**A.** 7.2 nM

Target: Histamine H3 receptor (Rattus norvegicus, UniProt Q9QYN8)
Experiment: Binding affinity to histamine H3 receptor in rat cerebral cortex
Format: tissue-based

Histamine H3 receptor (Rattus norvegicus, UniProt Q9QYN8), sequence (Q9QYN8 whole entry): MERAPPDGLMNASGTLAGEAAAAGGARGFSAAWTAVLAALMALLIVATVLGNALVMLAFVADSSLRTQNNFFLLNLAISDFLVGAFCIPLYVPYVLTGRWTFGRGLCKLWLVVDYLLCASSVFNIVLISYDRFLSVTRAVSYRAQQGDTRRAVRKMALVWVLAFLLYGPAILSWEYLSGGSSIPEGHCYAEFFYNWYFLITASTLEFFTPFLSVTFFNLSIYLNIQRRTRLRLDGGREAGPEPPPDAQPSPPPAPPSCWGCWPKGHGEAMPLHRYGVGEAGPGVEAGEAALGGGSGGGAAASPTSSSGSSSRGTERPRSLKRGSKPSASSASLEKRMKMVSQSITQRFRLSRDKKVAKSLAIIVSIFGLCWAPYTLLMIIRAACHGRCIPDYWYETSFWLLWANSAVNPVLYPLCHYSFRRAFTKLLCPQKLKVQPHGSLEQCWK

**Q.** For `Clc1ccc(CCCOCCCN2CCCCC2)cc1` [PITOLISANT], which Ki is on record?
**A.** 17 nM
